The values that follow come from paper PMC10035387 (Cancer Research Communications, 2022).

Where two headings read alike, the source gives them in different places.

The test system of one data set is Panc265 model. The conditions noted are these: cited from earlier work.
Data set [1] concerns cytochrome P450 (CYP) 2C8 and CYP3A4. The arrangement: method as in earlier work. As to conditions: cited from earlier work.
The test system of data set [2] is metastatic pancreatic cancer. The conditions noted are these: cited from earlier work; for Median OS: P < 0.001; for Efficacy in randomized clinical trials: patients with PDAC.
The nature of data set [3]: Phase Ib study: adverse events, dose-limiting toxicities, MTD. As for the experimental part:
The criteria for dose escalation were based on a modified toxicity probability method ([20]), using a statistical probability algorithm calculated with all patients treated at the same dose level. […] The study was conducted in accordance with legal and regulatory requirements and the Declaration of Helsinki. Prior to participant enrollment, the study was approved by the Institutional Review Board/Ethics Committee at each site at which it was conducted. Patients provided written informed consent before any study procedures were performed.

In the next data set the test system is phospho-Rb (pRb). The data set can be described thus: pRb IHC in serial paired skin biopsy specimens. The data set is classed as in vivo, human. As to conditions: skin biopsies.
The subject of a further data set is Ki67. The data set can be described thus: Ki67 IHC in serial paired skin biopsy specimens. The data set is classed as in vivo, human. The conditions noted are these: skin biopsies.
For data set [4] the following is noted: human, in vivo.
Source text: (§1) Other outcomes included safety, pharmacokinetics, pharmacodynamics, tissue/blood biomarkers, objective tumor response, progression-free survival (PFS), and OS assessments.
For data set [5] the following is noted: cited from earlier work.
The test system of data set [6] is PDAC cell lines that retain RB1 expression. Set-up: method as in PMID 29080858. As to conditions: cited from earlier work.
Data set [7] can be described thus: Phase Ib study: plasma pharmacokinetics. The conditions noted are these: steady state, overall population.
Source text: as §1
The mark [8] stands for this setting: after 2 weeks of palbociclib treatment, first-line MTD group.
Where [9] appears, read: after a further 2 weeks of palbociclib treatment.
Where [10] appears, read: after the 1-week palbociclib break, before cycle 2.
Where [11] appears, read: PALOMA-1, patients with breast cancer.
[12] abbreviates: PALOMA-2, patients with breast cancer.

As for `CCc1cnn2c(NCc3ccc[n+]([O-])c3)cc(N3CCCC[C@H]3CCO)nc12` [dinaciclib], the “Sensitivity of Panc265 model” value with Panc265 model is recorded as “sensitive”.

On to `CC(=O)O[C@H]1C(=O)[C@@]2(C)[C@H]([C@H](OC(=O)c3ccccc3)[C@]3(O)C[C@H](OC(=O)[C@H](O)[C@@H](NC(=O)c4ccccc4)c4ccccc4)C(C)=C1C3(C)C)[C@]1(OC(C)=O)CO[C@@H]1C[C@@H]2O` [Paclitaxel], for which the Metabolizing enzymes result in data set [1] was “metabolized primarily by cytochrome P450 (CYP) 2C8 and CYP3A4”.

On to `Nc1ccn([C@@H]2O[C@H](CO)[C@@H](O)C2(F)F)c(=O)n1` [gemcitabine], for which the “Median OS” value in [2] (FOLFIRINOX versus gemcitabine) is on record as 6.8 months; in data set [2] (GA versus gemcitabine alone, metastatic pancreatic cancer), 6.7 months.

In the case of FOLFIRINOX, the “Median OS” value in data set [2] (FOLFIRINOX versus gemcitabine) was 11.1 months.

In the case of `CC(=O)c1c(C)c2cnc(Nc3ccc(N4CCNCC4)cn3)nc2n(C2CCCC2)c1=O` [palbociclib], in data set [3] (all patients), the “Permanent discontinuation of palbociclib due to bacterial gastritis” value was found to be 1.3%, the “Permanent discontinuation of palbociclib due to infection” value worked out at 1.3% and the “Permanent discontinuation of palbociclib due to sepsis” value was found to be 1.3%. The molecule further displayed an MTD of palbociclib in data set [3] (for 21 of every 28 days, with nab-paclitaxel) of 100 mg. Also, the pRb level result in the data set on phospho-Rb (pRb) (setting [8]) is on record as “decreased”. In addition, the pRb level result with phospho-Rb (pRb) (setting [9]) is given as “decreased again to below baseline”. In addition, the pRb level entry with phospho-Rb (pRb) (setting [10]) is given as “rebounded to baseline or higher levels”. Also, in the data set with Ki67 (setting [8]), the Ki67 level result is reported as “decreased”. Moreover, the Ki67 level entry in the data set on Ki67 (setting [9]) is on record as “decreased again to below baseline”. Also, in the data set on Ki67 (setting [10]), the Ki67 level entry is on record as “rebounded to baseline or higher levels”. For the same molecule, in [4], the “CL/F, geometric mean” value came to 79.95 L/h; the “CL/F, median” value was 74.10 L/h; the “Ctrough, geometric mean” value came to 34.89 ng/mL; the “Ctrough, median” value is on record as 34.60 ng/mL. Moreover, the “tmax, median” value in data set [4] came to 4.17 h. The Clinical activity entry in data set [2] (CDKN2A-mutated advanced pancreatic cancer) was “did not have meaningful clinical activity”. In addition, in [5] (setting [11]), the AUCτ is 1,933 ng·hour/mL and the Cmax – broadly, the peak of the concentration-time curve – is on record as 108 ng/mL. In addition, in [5] (setting [12]), the AUCτ is listed as 1,992 ng·hour/mL and the highest concentration (Cmax) is 110 ng/mL. Further, in data set [6], the “Effect on PDAC cell lines” value is “induces cell-cycle arrest and apoptosis”. In [7], the “Dose-normalized geometric mean AUCτ” value is 1,569 ng·hour/mL and the “Dose-normalized geometric mean Cmax” value was 90.44 ng/mL.

B1: PEGPH20: agent not efficacious in randomized clinical trials in PDAC (protein, UniProt P38567 36-490, looked up)
Hyaluronidase PH-20: LNFRAPPVIPNVPFLWAWNAPSEFCLGKFDEPLDMSLFSFIGSPRINATGQGVTIFYVDRLGYYPYIDSITGVTVNGGIPQKISLQDHLDKAKKDITFYMPVDNLGMAVIDWEEWRPTWARNWKPKDVYKNRSIELVQQQNVQLSLTEATEKAKQEFEKAGKDFLVETIKLGKLLRPNHLWGYYLFPDCYNHHYKKPGYNGSCFNVEIKRNDDLSWLWNESTALYPSIYLNTQQSPVAATLYVRNRVREAIRVSKIPDAKSPLPVFAYTRIVFTDQVLKFLSQDELVYTFGETVALGASGIVIWGTLSIMRSMKSCLLLDNYMETILNPYIINVTLAAKMCSQVLCQEQGVCIRKNWNSSDYLHLNPDNFAIQLEKGGKFTVRGKPTLEDLEQFSEKFYCSCYSTLSCKEKADVKDTDAVDVCIADGVCIDAFLKPPMETEEPQIFYNASPSTLS
modifications: PEGylated; pegvorhyaluronidase alfa
In the case of B1, the “Efficacy in randomized clinical trials” value in data set [2] was “not efficacious”.

B2: pegilodecakin: agent not efficacious in randomized clinical trials in PDAC (protein, UniProt P22301 19-178, looked up)
Interleukin-10: SPGQGTQSENSCTHFPGNLPNMLRDLRDAFSRVKTFFQMKDQLDNLLLKESLLEDFKGYLGCQALSEMIQFYLEEVMPQAENQDPDIKAHVNSLGENLKTLRLRLRRCHRFLPCENKSKAVEQVKNAFNKLQEKGIYKAMSEFDIFINYIEAYMTMKIRN
modifications: PEGylated
With B2, in data set [2], the “Efficacy in randomized clinical trials” value was “not efficacious”.
